Assay results published in US6583155B2, “Method for treating allergies using substituted pyrazoles” (priority 2000, dated 2003).
“Also recorded” adds a separate entry of the source.

Tests used:
[1] = test system: human T cells (PBMC from allergic donors) stimulated with ragweed extracts; assay: Ex vivo human T cell-proliferation assay, ragweed allergen extracts; conditions: PBMC from allergy donors, 7 days culture, 3H-thymidine incorporation
[2] = test system: human T cells (PBMC from allergic donors) stimulated with house dust mite extracts; assay: Ex vivo human T cell-proliferation assay, house dust mite allergen extracts
[3] = test system: human T cells (PBMC) stimulated with ConA; assay: Ex vivo human T cell-proliferation assay, ConA (pan-T cell mitogen) control; conditions: pan-T cell mitogen specificity control
[4] = test system: invariant chain (li) degradation in PBMC from human blood; assay: Monitoring cathepsin S inhibition in human blood: p10li fragment by Western blot; conditions: incubation for 24 h, SDS-PAGE / Western blot

Row | SMILES | T cell proliferative responses to ragweed extracts (short and giant) [1] | T cell proliferative responses to Der f extract ([2]; PBMC from an allergy donor, titrated doses of compound, 7 days, 3H-thymidine incorporation (FIG. 3)) | T cell proliferative responses to house dust mite extracts (Der p and Der f) ([2]; PBMC from allergy donors, 7 days culture, 3H-thymidine incorporation) | T cell proliferative responses induced by ConA [3] | p10li fragment of invariant chain (block in degradation of li) [4]
1 | CS(=O)(=O)N1CCc2c(c(-c3ccc(Br)cc3)nn2CC(O)CN2CCC(n3c(=O)[nH]c4ccc(Cl)cc43)CC2)C1 (stereo not shown) [Example 8, 1-(1-{3-[3-(4-Bromo-phenyl)-5-methanesulfonyl-4,5,6,7-tetrahydro-pyrazolo[4,3-c]pyridin-1-yl]-2-hydroxy-propyl}-piperidin-4-yl)-6-chloro-1,3-dihydro-benzoimidazol-2-one] | inhibition | inhibition | – | – | –
2 | Cc1cc(-c2nn(CC(O)CN3CCC(n4c(=O)[nH]c5ccc(Cl)cc54)CC3)c3c2CN(S(C)(=O)=O)CC3)ccc1Cl (stereo not shown) [Example 53, 6-Chloro-1-(1-{3-[3-(4-chloro-3-methyl-phenyl)-5-methanesulfonyl-4,5,6,7-tetrahydro-pyrazolo[4,3-c]pyridin-1-yl]-2-hydroxy-propyl}-piperidin4-yl)-1,3-dihydro-benzoimidazol-2-one] | inhibition | – | – | – | –
3 | CC(C)C[C@H](NC(=O)N1CCOCC1)C(=O)N[C@H](/C=C/S(=O)(=O)c1ccccc1)CCc1ccccc1 [LHVS, 4-morpholinecarboxamide, N-[(1S)-3-methyl-1-[[[(1S, 2E)-1-(2-phenylethyl)-3-(phenylsulfonyl)-2-propenyl]amino]carbonyl]butyl]-] | strongly inhibited; also recorded: inhibition | – | strongly inhibited; also recorded: inhibition | not affected | the p10li fragment was seen
